Measurements taken from patent US9353072B2, “Antimicrobial substituted thiazoles and methods of use” (Purdue Research Foundation, priority 2012, dated 2016).
≈ marks a conversion by molar mass, not a printed value. Like-named read-outs stand apart in the source and are kept apart here.

Columns and labels:
NRS119 = assay: MIC/MBC broth microdilution, NRS119; assay type: cell-based; details: Staphylococcus aureus
Procedure: (§1) Determination of minimum inhibitory concentration (MIC). The MICs of the lead thiazole compound (compound 1a) and nine derivatives tested against all 18 MRSA strains were determined, in triplicate samples, using the broth microdilution method in accordance with the recommendations contained in the CLSI guidelines.

VISA LIM 3 (NRS37) = assay: MIC/MBC broth microdilution, NRS37 (VISA LIM 3); assay type: cell-based; details: Staphylococcus aureus
Procedure: as §1

VRSA (VRS10) = assay: MIC/MBC broth microdilution, VRSA (VRS10); assay type: cell-based, Staphylococcus aureus; details: Staphylococcus aureus, Table 7, VRSA (VRS10)
Procedure: as §1

MRSA ATCC 43300 = assay: MIC/MBC broth microdilution, MRSA ATCC 43300; assay type: cell-based, Staphylococcus aureus; details: Staphylococcus aureus
Procedure: as §1

MRSA USA400 (NRS123) = assay: MIC/MBC broth microdilution, NRS123 (USA400); assay type: cell-based; details: Staphylococcus aureus
Procedure: as §1

[1] = system: MRSA ATCC 700699 (NRS1, VISA); assay: MIC/MBC broth microdilution, NRS1 (ATCC 700699); assay type: cell-based; details: Staphylococcus aureus
Procedure: as §1

MRSA USA500 (NRS385) = assay: MIC/MBC broth microdilution, NRS385 (USA500); assay type: cell-based; details: Staphylococcus aureus
Procedure: as §1

NRS107 = assay: MIC/MBC broth microdilution, NRS107; assay type: cell-based; details: Staphylococcus aureus
Procedure: as §1

VISA HIP07256 (NRS19) = assay: MIC/MBC broth microdilution, NRS19 (VISA HIP07256); assay type: cell-based; details: Staphylococcus aureus
Procedure: as §1

NRS194 = assay: MIC/MBC broth microdilution, NRS194; assay type: cell-based; details: Staphylococcus aureus
Procedure: as §1

MRSA NRS384 (USA300) = assay: MIC/MBC broth microdilution, NRS384 (USA300); assay type: cell-based; details: Staphylococcus aureus
Procedure: as §1

MRSA (USA300) = assay: Time-kill assay; assay type: cell-based, Staphylococcus aureus; details: 3.0×MIC; MRSA (USA300)
Procedure: Time-kill assay. […] Viable CFU/mL was determined by serial dilution and plating on trypticase soy agar (TSA) (Becton, Dickinson and Company, Sparks, Md., USA) plates after 0, 2, 4, 6, 8, 10, and 12 hours of incubation at 37° C. to identify the time required to reduce the bacterial cell count by 3-log10.

MRSA USA200 = assay: MIC broth microdilution, MRSA USA200; assay type: cell-based; details: Staphylococcus aureus, read-out: Minimum Inhibitory Concentration
Procedure: as §1

MRSA USA100 = assay: MIC broth microdilution, MRSA USA100; assay type: cell-based; details: Staphylococcus aureus, read-out: Minimum Inhibitory Concentration
Procedure: as §1

[2] = read-out: Minimum Inhibitory Concentration

CC(=O)c1ccc(-c2ccc(-c3nc(C)c(/C(C)=N\NC(=N)N)s3)cc2)cc1 [Compound M11, (Z)-2-(1-(2-(4′-acetyl-[1,1′-biphenyl]-4-yl)-4-methylthiazol-5-yl)ethylidene)hydrazinecarboximidamide] gave an MBC (NRS119; NRS 119 / VISA, Table 7, VISA (NRS119), read-out: Minimum Bactericidal Concentration) of 32 µM (≈ 12.5 µg/mL), an MIC (NRS119; NRS 119 / VISA, Table 7, VISA (NRS119), read-out: Minimum Inhibitory Concentration) of 16 µM and an MBC (NRS119; Table 8, NRS119, read-out: MBC) of 32 µM (≈ 12.5 µg/mL). The MIC (NRS119; Table 8, NRS119, read-out: MIC) was 16 µM, the MBC (VISA LIM 3 (NRS37); Table 8, NRS37 (VISA), read-out: MBC) was 16 µM (≈ 6.26 µg/mL) and the MIC (VISA LIM 3 (NRS37); Table 8, NRS37 (VISA), read-out: MIC) was 8 µM (≈ 3.13 µg/mL). The MBC (VRSA (VRS10); read-out: Minimum Bactericidal Concentration) was 16 µM (≈ 6.26 µg/mL), the MIC (VRSA (VRS10); [2]) was 16 µM (≈ 6.26 µg/mL) and the MIC (MRSA ATCC 43300; Table 6, MRSA ATCC 43300, 128 μM down to 1.0 μM, 20 hours, read-out: MIC) was 4 µM (≈ 1.57 µg/mL). For the same compound, the MBC (MRSA ATCC 43300; Table 6, MRSA ATCC 43300, plating on TSA, 20 hour incubation, read-out: MBC) was 8 µM (≈ 3.13 µg/mL), the MBC (MRSA ATCC 43300; Table 7, MRSA (ATCC 43300), read-out: Minimum Bactericidal Concentration) was 8 µM (≈ 3.13 µg/mL) and the MIC (MRSA ATCC 43300; Table 7, MRSA (ATCC 43300), read-out: Minimum Inhibitory Concentration) was 8 µM (≈ 3.13 µg/mL). It also gave an MBC (MRSA ATCC 43300; Table 8, ATCC 43300, read-out: MBC) of 16 µM (≈ 6.26 µg/mL), an MIC (MRSA ATCC 43300; Table 8, ATCC 43300, read-out: MIC) of 16 µM (≈ 6.26 µg/mL) and an MBC (MRSA USA400 (NRS123); Table 8, NRS123, read-out: MBC) of 16 µM (≈ 6.26 µg/mL). The MIC (MRSA USA400 (NRS123); Table 8, NRS123, read-out: MIC) was 16 µM (≈ 6.26 µg/mL), the MBC ([1]; Table 7, VISA (NRS1), read-out: Minimum Bactericidal Concentration) was 32 µM (≈ 12.5 µg/mL) and the MIC ([1]; Table 7, VISA (NRS1), read-out: Minimum Inhibitory Concentration) was 8 µM (≈ 3.13 µg/mL). For the same compound, the MBC ([1]; Table 8, NRS1 (VISA), read-out: MBC) was 16 µM (≈ 6.26 µg/mL), the MIC ([1]; Table 8, NRS1 (VISA), triplicates, 20 hours, read-out: MIC) was 16 µM (≈ 6.26 µg/mL) and the MBC (MRSA USA500 (NRS385); Table 8, NRS385, read-out: MBC) was 16 µM (≈ 6.26 µg/mL). It also gave an MIC (MRSA USA500 (NRS385); Table 8, NRS385, read-out: MIC) of 16 µM (≈ 6.26 µg/mL), an MBC (NRS107; Table 8, read-out: MBC) of 32 µM (≈ 12.5 µg/mL) and an MIC (NRS107; Table 8, read-out: MIC) of 16 µM (≈ 6.26 µg/mL). For the same compound, the MBC (VISA HIP07256 (NRS19); Table 8, NRS19 (VISA), read-out: MBC) was 32 µM (≈ 12.5 µg/mL), the MIC (VISA HIP07256 (NRS19); Table 8, NRS19 (VISA), read-out: MIC) was 32 µM (≈ 12.5 µg/mL) and the MBC (NRS194; Table 8, read-out: MBC) was 16 µM (≈ 6.26 µg/mL). For the same compound, the MIC (NRS194; Table 8, read-out: MIC) was 16 µM (≈ 6.26 µg/mL), the MBC (MRSA NRS384 (USA300); Table 8, NRS384, read-out: MBC) was 16 µM (≈ 6.26 µg/mL) and the MIC (MRSA NRS384 (USA300); Table 8, NRS384, read-out: MIC) was 16 µM (≈ 6.26 µg/mL).

Compound CN[C@H](CC(C)C)C(=O)N[C@H]1C(=O)N[C@@H](CC(N)=O)C(=O)N[C@H]2C(=O)N[C@H]3C(=O)N[C@H](C(=O)N[C@H](C(=O)O)c4cc(O)cc(O)c4-c4cc3ccc4O)[C@H](O)c3ccc(c(Cl)c3)Oc3cc2cc(c3O[C@@H]2O[C@H](CO)[C@@H](O)[C@H](O)[C@H]2O[C@H]2C[C@](C)(N)[C@H](O)[C@H](C)O2)Oc2ccc(cc2Cl)[C@H]1O [Vancomycin, reference compound] has an MBC (NRS119; NRS119) of under 1 µM, an MIC (NRS119; NRS119) of under 1 µM and an MIC (NRS119; NRS119, read-out: Minimum Inhibitory Concentration) of 1.4 µg/mL. For the same compound, the MIC (NRS119; NRS 119 / VISA, read-out: Minimum Inhibitory Concentration) was under 1 µM, the MBC (VISA LIM 3 (NRS37)) was 2 µM (≈ 2.9 µg/mL) and the “time to reduce the number of CFU by 3-log10” value (MRSA (USA300)) was over 12 hours. For the same compound, the MBC (MRSA ATCC 43300) was 0.5 µM (≈ 0.725 µg/mL), the MIC (MRSA ATCC 43300) was 0.5 µM (≈ 0.725 µg/mL) and the MIC (MRSA ATCC 43300; [2]) was under 1 µM. It also gave an MBC (MRSA USA400 (NRS123)) of 0.5 µM (≈ 0.725 µg/mL), an MIC (MRSA USA400 (NRS123)) of 0.5 µM (≈ 0.725 µg/mL) and an MBC [1] of 2 µM (≈ 2.9 µg/mL). It also gave an MBC (MRSA USA500 (NRS385)) of 0.5 µM (≈ 0.725 µg/mL), an MIC (MRSA USA500 (NRS385)) of 0.5 µM (≈ 0.725 µg/mL) and an MBC (NRS107) of under 1 µM. For the same compound, the MIC (NRS107) was under 1 µM, the MBC (VISA HIP07256 (NRS19)) was under 1 µM and the MIC (VISA HIP07256 (NRS19)) was under 1 µM. For the same compound, the MBC (NRS194) was 0.5 µM (≈ 0.725 µg/mL), the MIC (NRS194) was 0.5 µM (≈ 0.725 µg/mL) and the MBC (MRSA NRS384 (USA300)) was 0.5 µM (≈ 0.725 µg/mL). The MIC (MRSA NRS384 (USA300)) was 0.5 µM (≈ 0.725 µg/mL), the MIC (MRSA USA200) was 0.4 µg/mL (≈ 0.276 µM) and the MIC (MRSA USA100) was 1.4 µg/mL (≈ 0.966 µM).
